Literature values in patent US8124123B2, “Controlled release azithromycin solid dosages forms” (Dow Pharmaceutical Sciences, Inc., priority 2007, dated 2012).

Experiments:
[1] = oral administration; reported with single 1000 mg dose and 1500 mg over 5 days

fraction of azithromycin released into the stomach that may be destroyed (about one hour in the stomach, low pH environment): approximately one third | chemical stability at pH 1 (pH found in stomach contents following a meal): chemically unstable
Structure (SMILES): CC[C@H]1OC(=O)[C@H](C)[C@@H](O[C@H]2C[C@@](C)(OC)[C@@H](O)[C@H](C)O2)[C@H](C)[C@@H](O[C@@H]2O[C@H](C)C[C@H](N(C)C)[C@H]2O)[C@](C)(O)C[C@@H](C)CN(C)[C@H](C)[C@@H](O)[C@]1(C)O [azithromycin, 9-deoxo-9a-aza-9a-methyl-9a-homoerythromycin A]
gastrointestinal side effects [1]: dose-related incidence of gastrointestinal side effects
